We go through 3 compounds from ChEMBL document CHEMBL1135288, “Anthranilate sulfonamide hydroxamate TACE inhibitors. Part 1: Structure-based design of novel acetylenic P1' groups” (Bioorg Med Chem Lett, 2002).

The target of experiment [1] is Disintegrin and metalloproteinase domain-containing protein 17 (Sus scrofa, UniProt O77636). Nature of the experiment: Inhibition of porcine Tumor necrosis factor alpha converting enzyme.
The target of experiment [2] is T1, Interstitial collagenase (Homo sapiens, UniProt P03956).
T1 sequence (P03956 whole entry): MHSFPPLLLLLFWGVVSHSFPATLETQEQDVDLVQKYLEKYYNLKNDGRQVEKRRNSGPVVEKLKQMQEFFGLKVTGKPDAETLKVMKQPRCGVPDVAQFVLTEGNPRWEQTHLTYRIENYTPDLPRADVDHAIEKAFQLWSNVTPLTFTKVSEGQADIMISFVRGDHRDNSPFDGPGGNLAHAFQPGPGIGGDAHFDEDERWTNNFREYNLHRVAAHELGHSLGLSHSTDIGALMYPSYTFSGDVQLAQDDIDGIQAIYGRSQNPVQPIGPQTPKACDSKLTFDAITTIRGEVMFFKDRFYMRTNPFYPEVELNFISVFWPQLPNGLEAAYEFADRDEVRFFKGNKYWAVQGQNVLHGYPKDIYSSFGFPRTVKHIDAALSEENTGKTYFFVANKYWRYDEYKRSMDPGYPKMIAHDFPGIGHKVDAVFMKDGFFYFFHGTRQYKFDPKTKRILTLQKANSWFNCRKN
Nature of the experiment: Inhibition of Matrix metalloprotease-1.

Experiment [3] has as its target Matrix metalloproteinase-9 (Homo sapiens, UniProt P14780). Nature of the experiment: Inhibition of Matrix metalloprotease-9.
In experiment [4] the target is Collagenase 3 (Homo sapiens, UniProt P45452). Kind of experiment: Inhibition of Matrix metalloprotease-13.
In experiment [5] the target is T2, Interstitial collagenase (Homo sapiens) (UniProt P03956).
T2 sequence (whole entry): T1 sequence (P03956 whole entry)
Nature of the experiment: Inhibition of Matrix metalloprotease-1 at 10 uM.

Chain of Disintegrin and metalloproteinase domain-containing protein 17 (O77636 whole entry, the tested form may be a part): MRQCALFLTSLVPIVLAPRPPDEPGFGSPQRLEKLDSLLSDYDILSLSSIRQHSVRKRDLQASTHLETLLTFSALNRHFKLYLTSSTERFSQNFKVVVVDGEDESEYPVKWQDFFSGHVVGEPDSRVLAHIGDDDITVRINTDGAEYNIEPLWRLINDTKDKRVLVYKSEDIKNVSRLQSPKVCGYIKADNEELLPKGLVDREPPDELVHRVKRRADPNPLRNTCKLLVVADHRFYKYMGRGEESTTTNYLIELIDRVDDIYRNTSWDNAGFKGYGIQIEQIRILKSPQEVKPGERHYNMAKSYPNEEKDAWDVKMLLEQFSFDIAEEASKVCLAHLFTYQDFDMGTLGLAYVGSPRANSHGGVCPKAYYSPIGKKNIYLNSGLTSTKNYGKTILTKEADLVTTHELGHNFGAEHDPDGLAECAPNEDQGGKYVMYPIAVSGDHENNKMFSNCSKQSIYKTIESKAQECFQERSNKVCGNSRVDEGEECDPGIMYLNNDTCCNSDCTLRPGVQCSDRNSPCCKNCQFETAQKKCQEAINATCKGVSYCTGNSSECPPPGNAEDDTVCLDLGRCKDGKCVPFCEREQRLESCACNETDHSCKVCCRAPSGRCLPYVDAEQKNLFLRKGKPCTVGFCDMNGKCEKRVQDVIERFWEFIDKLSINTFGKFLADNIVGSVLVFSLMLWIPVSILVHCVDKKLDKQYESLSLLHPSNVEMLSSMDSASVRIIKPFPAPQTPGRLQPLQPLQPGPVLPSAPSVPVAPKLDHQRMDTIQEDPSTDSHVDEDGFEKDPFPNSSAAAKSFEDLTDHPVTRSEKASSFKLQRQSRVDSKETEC
Chain of Matrix metalloproteinase-9 (P14780 whole entry): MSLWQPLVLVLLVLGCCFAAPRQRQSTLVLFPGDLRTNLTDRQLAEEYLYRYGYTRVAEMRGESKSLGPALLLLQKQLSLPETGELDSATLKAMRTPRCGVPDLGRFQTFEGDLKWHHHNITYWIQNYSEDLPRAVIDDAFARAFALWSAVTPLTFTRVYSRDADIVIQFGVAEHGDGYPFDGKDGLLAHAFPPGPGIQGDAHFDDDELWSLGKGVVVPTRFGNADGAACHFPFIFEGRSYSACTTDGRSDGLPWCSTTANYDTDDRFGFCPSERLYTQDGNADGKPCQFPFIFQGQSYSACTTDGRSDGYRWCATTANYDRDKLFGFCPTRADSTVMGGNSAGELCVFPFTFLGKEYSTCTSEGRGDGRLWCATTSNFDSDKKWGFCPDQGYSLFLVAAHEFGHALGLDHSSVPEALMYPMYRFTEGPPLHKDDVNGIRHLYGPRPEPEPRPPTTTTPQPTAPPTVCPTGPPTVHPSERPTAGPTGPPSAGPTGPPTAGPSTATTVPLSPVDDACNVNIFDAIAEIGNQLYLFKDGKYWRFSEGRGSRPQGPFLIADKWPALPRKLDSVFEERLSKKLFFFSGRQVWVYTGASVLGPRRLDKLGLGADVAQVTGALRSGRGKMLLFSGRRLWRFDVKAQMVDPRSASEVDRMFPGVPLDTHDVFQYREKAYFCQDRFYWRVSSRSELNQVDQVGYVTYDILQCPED

As a reminder, the IC50 is the midpoint of a concentration-inhibition curve. Higher therefore signals weaker potency. As for `C#CCOc1ccc(S(=O)(=O)N(C)c2c(C)cc(Br)cc2C(=O)NO)cc1`, the midpoint of inhibition in experiment [1], the IC50, lay at 11 nM. This lies in the double-digit nanomolar range.
For the compound `CCCCOc1ccc(S(=O)(=O)N(C)c2c(C)cc(Br)cc2C(=O)NO)cc1`, the 50% inhibitory concentration (IC50) was 2490 nM in experiment [2], 21 nM in experiment [3], 68 nM in experiment [4] and 67 nM in experiment [1].
As usually defined, the inhibition is the drop in the measured response relative to a control, in per cent. For `CCCCC#CCOc1ccc(S(=O)(=O)N(C)c2c(C)cc(Br)cc2C(=O)NO)cc1`, the inhibition in experiment [5] was determined as 53%.
